# Assay results as given in PMC12974487, “Inhibition of FicD-mediated AMPylation and deAMPylation by isoprenoid diphosphates” (Proceedings of the National Academy of Sciences of the …, 2026).
# Changes are numbered by the printed parent chain.
# How the values were obtained:
# [1] = tested on: FicD; parameters: method as in PMID 40036289; conditions: cited from earlier work
# [2] = target: T1, FicD^WT (Homo sapiens, UniProt Q9BVA6); assay: MIDAS equilibrium dialysis/mass spectrometry metabolite screen, FicD^WT; format: binding; conditions: cutoff Q < 0.05 and |Log2 corrected fold change| > 2, metabolites 5 µM
# T1 construct: soluble ER luminal domain (residues 105 to 458) of wild-type human FicD; 6xHis-Sumo (N, cleaved yes); made in house; host or cells: Rosetta(DE3) E. coli
# T1 sequence (Q9BVA6 105-458): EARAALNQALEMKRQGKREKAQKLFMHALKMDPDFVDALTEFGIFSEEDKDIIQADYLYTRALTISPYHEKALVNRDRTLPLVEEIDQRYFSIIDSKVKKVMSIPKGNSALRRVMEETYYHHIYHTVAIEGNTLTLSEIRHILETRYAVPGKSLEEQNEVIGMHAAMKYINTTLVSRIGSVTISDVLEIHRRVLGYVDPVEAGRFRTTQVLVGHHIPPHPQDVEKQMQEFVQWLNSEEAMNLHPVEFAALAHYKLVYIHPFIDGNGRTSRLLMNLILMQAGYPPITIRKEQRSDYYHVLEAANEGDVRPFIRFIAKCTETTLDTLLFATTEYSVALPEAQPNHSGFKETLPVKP
# [3] = target: T2, FicD^E234G (Homo sapiens, UniProt Q9BVA6, E234G); assay: MIDAS metabolite screen, FicD^E234G; format: binding; conditions: cutoff Q < 0.05 and |Log2 corrected fold change| > 2, metabolites 5 µM
# T2 construct: soluble ER luminal domain (residues 105 to 458) of wild-type human FicD and three mutants; 6xHis-Sumo (N, cleaved yes); made in house; host or cells: Rosetta(DE3) E. coli
# T2 sequence (Q9BVA6 105-458 E234G): T1 sequence (Q9BVA6 105-458) with E130G
# [4] = target: T3, FicD^L258D (Homo sapiens, UniProt Q9BVA6, L258D); assay: MIDAS metabolite screen, FicD^L258D; format: binding; conditions: cutoff Q < 0.05 and |Log2 corrected fold change| > 2, metabolites 5 µM
# T3 construct: soluble ER luminal domain (residues 105 to 458) of wild-type human FicD and three mutants; 6xHis-Sumo (N, cleaved yes); made in house; host or cells: Rosetta(DE3) E. coli
# T3 sequence (Q9BVA6 105-458 L258D): T1 sequence (Q9BVA6 105-458) with L154D
# From the text: (§1) To identify small-molecule metabolite interactions with FicD, we applied an unbiased high-throughput screening approach known as MIDAS ([44]). Given the high concentrations of protein required for MIDAS screening, we purified the soluble ER luminal domain (residues 105 to 458) of wild-type human FicD and three mutants FicD^E234G, FicD^L258D, and FicD^H363A for screening (Fig. 1A). These mutants were selected based on their well-established biochemical features ([23], [24], [31]). All three are predicted to enhance detection of protein–metabolite interactions (PMIs) relative to FicD^WT through increased affinity for nucleotide substrates (FicD^E234G), improved solubility (FicD^L258D), and loss of catalytic turnover (FicD^H363A) (Fig. 1A). To decrease the potential for nonspecific small-molecule binding, we ensured the purity of our FicD proteins (SI Appendix, Fig. S1 A and B). As reported by other investigators ([24], [31]), we observe an increase in elution volume of the FicD^L258D mutant, consistent with its monomerization (SI Appendix, Fig. S1C).
# (§2) Out of the 602 naturally occurring human metabolites in the MIDAS library, we applied a significance cutoff (q value < 0.05) to identify 12 PMIs with a Log2 (corrected fold change) of >2 and two PMIs with a Log2 (corrected fold change) <-2 in the FicD^WT screen (Fig. 1B and SI Appendix, Table S2). Hits were additionally triaged based on detection of multiple adducts of the metabolite in a single dataset (FPP and […] in Fig. 1B) and identification of the same metabolites across three or more of the FicD construct screens (Fig. 1C). Three chemical classes passed this initial triage: adenosine nucleotides, isoprenoid diphosphates, and thyroid hormone intermediates (Fig. 1 B and C and SI Appendix, Tables S2–S5).
# (§3) 22°C. Induced cultures were then harvested by centrifugation at 8000G for 15 minutes at 4°C and […]
# (§4) Bacterial pellets were resuspended in 30-50mL of 50mM Tris pH 7.4/150mM NaCl/10% glycerol with one Roche cOmplete EDTA-Free Protease inhibitor cocktail tablet (cat no. COEDTAF-RO).
# (§5) Triton-X100 to a final concentration of 0.2%, Chicken-egg lysozyme to a final concentration of 0.4ug/mL, and 2-5uL of Millipore Benzonase Nuclease (cat no. 70664) were added to bacterial suspension prior to sonication at 40-50% amplitude for 1-3 minutes in pulses of 5 seconds on and 30 seconds off on ice with a Sonics VCX 750 Ultrasonicator. Bacterial lysate was then clarified by centrifugation at 30,000 x g for 30 minutes at 4°C.
# Clarified lysate was rotated with Qiagen NiNTA agarose beads (cat no. 30210) for 1-2 hours at 4°C. The beads were then transferred to a 15mL conical vial, resuspended in 10-15mL wash buffer (50mM Tris pH 7.4/150mM NaCl/10% glycerol/0.2% Triton-X 100/10mM imidazole), and spun down at 1000G for 1 minute at 4°C, after which the supernatant was aspirated from the beads. This washing step was repeated 2-4 times to rinse bacterial lysate from the beads prior to on-column washing. The beads were then transferred to BioRad Econopac 20mL bed volume column (cat no.
# 7321010) and washed with 10-15mL of wash buffer (repeated at least three times), 10mL of ATP wash (50mM Tris pH 7.4/300mM KCl/10mM MgCl2/500uM ATP, repeated once), and finally with 10-15mL wash buffer without Triton-X 100 (repeated at least three times). Protein was eluted in 500μL-1mL elution buffer (50mM Tris pH 7.5/150mM NaCl/10% glycerol/0.5% CHAPS). […]
# [5] = target: T4, FicD^H363A (Homo sapiens, UniProt Q9BVA6, H363A); assay: MIDAS metabolite screen, FicD^H363A; format: binding; conditions: cutoff Q < 0.05 and |Log2 corrected fold change| > 2, metabolites 5 µM
# T4 construct: soluble ER luminal domain (residues 105 to 458) of wild-type human FicD and three mutants; 6xHis-Sumo (N, cleaved yes); made in house; host or cells: Rosetta(DE3) E. coli
# T4 sequence (Q9BVA6 105-458 H363A): T1 sequence (Q9BVA6 105-458) with H259A
# From the text: as §1, §2, §3, §4, §5
# Clarified lysate was rotated with Qiagen NiNTA agarose beads (cat no. 30210) for 1-2 hours at 4°C. […]
SMILES,FicD inhibition reported in previous drug screens [1],MIDAS protein-metabolite interaction (enrichment/depletion) [2],MIDAS protein-metabolite interaction (enrichment/depletion) [3],MIDAS protein-metabolite interaction (enrichment/depletion) [4],MIDAS protein-metabolite interaction (enrichment/depletion) [5]
N[C@@H](Cc1cc(I)c(Oc2ccc(O)c(I)c2)c(I)c1)C(=O)O [liothyronine],small-molecule inhibitor of FicD,,,,
"N[C@@H](Cc1ccc(Oc2ccc(O)c(I)c2)c(I)c1)C(=O)O [3,3’-Diiodothyronine]",,significantly enriched,significantly enriched,significantly enriched,significantly enriched
